Data as given in patent publication US20230271950A1, “ANTIBACTERIAL PICOLINAMIDE COMPOUNDS” (University of Notre Dame Du Lac, priority 2020, published 2023).

How the values were obtained:
C. difficile = assay: Minimum bactericidal concentration (MBC); assay type: cell-based, Clostridioides difficile
C. difficile ATCC43255 [1] = assay: Scanning-electron microscopy of C. difficile vegetative cells; assay type: cell-based, Clostridioides difficile; conditions: compound 1 at 4× to 32×MIC; VAN at 4×MIC
Description: (§1) FIG. 2. Mechanism of action of compound 1. (A) Macromolecular biosynthesis assays: Compound 1 was incubated with C. difficile ATCC43255 at 0.5×MIC. […] The incubation time was 60 min for DNA, 120 min for peptidoglycan synthesis and RNA, and 180 min for protein synthesis. (B-G) Imaging of C. difficile […] vegetative cells (logarithmic growth) by scanning electron microscopy.
Scanning-electron microscopy. […] Following incubation, the cells were washed with PBS (3×) and applied onto poly-1-lysine (Santa Cruz Biotechnology, Dallas, Tex.) coated microglass coverslips (Electron Microscopy Sciences, Hatfield, Pa.) and incubated for 15 min. The cells were fixed for 1 h with 2% glutaraldehyde, followed by a wash (3×) with sodium cacodylate buffer at pH 7.4. The samples were fixed with 1% osmium tetroxide for 1 h and rinsed (3×) in the buffer. The samples were then put through a graded ethanol series for dehydration, followed by critical point drying. The samples were then mounted on SEM stubs and sputter-coated with iridium. Microscopy and imaging were performed on a Magellan 400 XHR instrument (FEI, Hillsboro, Oreg.).

C. difficile ATCC43255 [2] = assay: Macromolecular synthesis assay (radioactive precursor incorporation); assay type: cell-based, Clostridioides difficile; conditions: 0.5×MIC
Description: as §1
The mechanism of action of 1 was investigated using macromolecular synthesis assays. These assays measure the incorporation of radioactive precursors ([2,8-^3H]-adenine, [5,6-^3H]-uridine, 1-[3,4,5-^3H(N)]-leucine, and N-acetyl-d-[6-^3H]glucosamine) respectively into DNA, RNA, protein, and peptidoglycan. […] This analysis visualizes the cell wall as the outermost layer of the cell envelope of Gram-positive bacteria such as C. difficile.
Macromolecular synthesis assay. The macromolecular synthesis assay was performed by established methods. […] The radiolabeled precursors were purchased from Perkin Elmer (Waltham, Mass., USA).

ESKAPE panel = assay: MIC against the ESKAPE panel; assay type: cell-based; conditions: E. faecium, S. aureus, K. pneumoniae, A. baumannii, P. aeruginosa, Enterobacter species
Description: Minimum-inhibitory Concentration Determination. MICs for C. difficile strains and other gut bacteria were determined with the broth microdilution method as previously described (J. Antimicrob. Chemother. 2013, 68, 515). ESKAPE panel and MRSA MICs were determined as described in the Clinical & Laboratory Standards Institute guidelines.

C. difficile ATCC 43255 = assay: Mouse model of recurrent C. difficile infection; assay type: in vivo, mice; conditions: VAN 50 mg/kg oral once a day for 5 days; days 10-15
Description: Next, compound 1 was evaluated in a mouse model of recurrent CDI.
Animals. Female C57BL/6 mice weighing 18-20 g and 6-8 weeks of age were used for the efficacy study (Jackson, Bar Harbor, Me.). Female CD-1 mice (24-31 g and 7-8 weeks of age) were used for the PK study. They were housed in groups of five mice in sterile polycarbonate shoeboxes with bedding consisting of ¼-inch corncob (The Andersons Ind., Maumee, Ohio) and Alpha-Dri (Shepherd Specialty Papers, Inc., Richland, Mich.). Mice were maintained on a 12-h light/dark cycle at 72° F. and were given Teklad 2918 irradiated extruded rodent diet and water ad libitum. All procedures were performed in accordance with and approved by the University of Notre Dame Institutional Animal Care and Use Committee.
C. difficile infection model. The recurrent C. difficile infection model reported by Chen et al. was used (Gastroenterology 2008, 135, 1984). […] Subsequently, mice were given a 10 mg/kg intraperitoneal injection of clindamycin. The following day, the mice were infected intragastrically with 10^4 CFU of C. difficile ATCC 43255. […] Body weights and survival were recorded for 25 days. The study was repeated a second time.

O=C(O)c1ccc2oc(NC(=O)c3cc(Oc4cccc(OC(F)(F)F)c4)ccn3)nc2c1 [Compound 1, Sodium 2-(4-(3-(trifluoromethoxy)phenoxy)picolinamido)benzo[d]oxazole-5-carboxylate]
MBC higher than MIC (C. difficile; C. difficile): 64 fold | MBC (C. difficile; Clostridioides difficile, C. difficile): 4 µg/mL | bacteriostatic or bactericidal (by definition) (C. difficile; from MBC versus MIC): bacteriostatic | cell surface by scanning-electron microscopy (C. difficile ATCC43255 [1]): bleb formation on the surface was evident | inhibition of DNA, RNA, and protein synthesis (C. difficile ATCC43255 [2]): Minimal levels of inhibition | inhibition of cell-wall peptidoglycan biosynthesis (C. difficile ATCC43255 [2]; N-acetyl-d-[6-^3H]glucosamine incorporation, 120 min): 55±4%

O=C(Nc1ncco1)c1ccnc(-c2ccc(Cl)c(Cl)c2)c1 [Compound 4, 2-(3,4-Dichlorophenyl)-N-(oxazol-2-yl)isonicotinamide]
activity against the ESKAPE panel (ESKAPE panel): active only against the Gram-positive members of the panel

CN[C@H](CC(C)C)C(=O)N[C@H]1C(=O)N[C@@H](CC(N)=O)C(=O)N[C@H]2C(=O)N[C@H]3C(=O)N[C@H](C(=O)N[C@H](C(=O)O)c4cc(O)cc(O)c4-c4cc3ccc4O)[C@H](O)c3ccc(c(Cl)c3)Oc3cc2cc(c3O[C@@H]2O[C@H](CO)[C@@H](O)[C@H](O)[C@H]2O[C@H]2C[C@](C)(N)[C@H](O)[C@H](C)O2)Oc2ccc(cc2Cl)[C@H]1O [VAN, vancomycin, reference compound]
cell surface by scanning-electron microscopy (C. difficile ATCC43255 [1]): altered | recurrence of infection (loss of body weight) (C. difficile ATCC 43255): recurrence of infection is observed
